Assay results as given in article PMC11862924, “Phenylpyrazoles as Inhibitors of the m^6A RNA-Binding Protein YTHDF2” (JACS Au, 2025).
Blank lines part the entries; values can stand above or below the compound they belong to.

How the values were obtained:
[1] = target: T1, YTHDF2 (residues 383–553) (Homo sapiens, UniProt Q9Y5A9); assay: Fluorescence polarization (FP) assay, YTHDF2–m6A RNA interaction; type: binding; details: 100 μM compound; YTHDF2 (residues 383–553, 20 nM), FAM-labeled m6A RNA probe 5 nM; average ± SD
T1 construct: A YTHDF2 YTH domain construct (residues 383–553) was subcloned to a pOPIN plasmid; made in house; host or cells: Escherichia coli BL21(DE3)
T1 sequence (Q9Y5A9 383-553): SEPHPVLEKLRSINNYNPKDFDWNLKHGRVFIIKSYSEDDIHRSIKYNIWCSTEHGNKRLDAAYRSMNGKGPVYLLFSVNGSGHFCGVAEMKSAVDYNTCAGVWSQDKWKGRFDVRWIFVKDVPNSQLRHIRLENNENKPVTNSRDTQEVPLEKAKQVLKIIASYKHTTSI
Protocol: The FP assay was performed in 384-well black plates (Corning no. 4514) with a total reaction volume of 15 μL. The final concentrations of protein (YTHDF2) and RNA were […], respectively, in a buffer containing 20 mM HEPES/KOH pH 7.5, 50 mM NaCl, 0.005% Tween 20, and 1 mM GSH (DTT). Compounds were incubated with protein, added FAM-m^6A RNA probe ([…](m6)ACUGUG) (purchased from IDT), and incubated at 4 °C for 30 min. The fluorescence polarization was measured using a plate reader (TECAN Spark) under an excitation wavelength of 485 nm and an emission wavelength of 535 nm with a bandwidth of 20 nm. […] The data were determined using GraphPad Prism 9.

JAR = assay: CCK-8 proliferation assay, JAR; type: cell-based; details: Homo sapiens; CCK-8 kit assay, triplicates, 72 h; read-out: Anti-proliferation activity against cancer cells (IC50), JAR
Protocol: (§1) The JAR, K562, HCT116, and MOLM13 cells were seeded in 96-well plates (3000 cells/well). After being cultured overnight, compounds were added together with the DMSO treatment (0.1%) as a control. After 72 h, CCK-8 solution (Vazyme, A311) was added, and the cells were incubated at 37 °C for 4 h. The absorbance was measured at 450 nm using a plate reader (TECAN Spark).

K562 = assay: CCK-8 proliferation assay, K562; type: cell-based; details: Homo sapiens, CCK-8 kit assay, triplicates, 72 h, read-out: Anti-proliferation activity against cancer cells (IC50), K562
Protocol: as §1

HCT116 = assay: CCK-8 proliferation assay, HCT116; type: cell-based; details: Homo sapiens, HCT-116; CCK-8 kit assay, triplicates, 72 h; read-out: Anti-proliferation activity against cancer cells (IC50), HCT116
Protocol: as §1

YTHDF2 [2] = target: T2, YTHDF2 (Homo sapiens, UniProt Q9Y5A9); design: method as in PMID 37236197; details: read-out: IC50, YTHDF2, AlphaScreen; cited from earlier work
T2 construct: A YTHDF2 YTH domain construct (residues 383–553) was subcloned to a pOPIN plasmid; made in house; host or cells: Escherichia coli BL21(DE3)
T2 sequence (Q9Y5A9 383-553): T1 sequence (Q9Y5A9 383-553)

YTHDF1 = target: T3, YTHDF1 (Homo sapiens, UniProt Q9BYJ9); design: method as in PMID 36268123; details: read-out: EC50, YTHDF1, tryptophan quenching assay; cited from earlier work
T3 construct: Plasmids of the YTH domain of YTHDF1 (residues 375–552); made in house; host or cells: Escherichia coli BL21(DE3); plasmid from the Zhou lab (Boston College)
T3 sequence (Q9BYJ9 375-552): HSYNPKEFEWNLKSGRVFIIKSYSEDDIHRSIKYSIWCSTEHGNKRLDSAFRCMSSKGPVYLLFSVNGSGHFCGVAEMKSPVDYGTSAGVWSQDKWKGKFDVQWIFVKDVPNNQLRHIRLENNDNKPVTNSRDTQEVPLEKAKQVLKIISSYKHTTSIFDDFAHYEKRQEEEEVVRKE

YTHDF2 [3] = target: T2, YTHDF2; design: method as in PMID 36268123; details: read-out: EC50, YTHDF2, tryptophan quenching assay; cited from earlier work
METTL3 = tested on: METTL3; design: method as in PMID 33902106; details: cited from earlier work

- inhibition at 100 µM [1]: 14.2%
- IC50 (K562): 24.5 ± 3.7 µM
- IC50 (HCT116): 5.8 ± 0.9 µM
Compound: N#C/C(=C\c1ccc(-c2cccc(O)c2)s1)C(N)=O [DC-Y13–27, reference compound]
- IC50 (JAR): 33.3 ± 5.6 µM
- IC50 (YTHDF2 [2]): 21.8 µM

Compound: O=c1c2ccccc2[se]n1-c1ccccc1 [Ebselen]
- EC50 (YTHDF1): 1.6 µM
- EC50 (YTHDF2 [3]): 1.7 µM

Compound: O=C(NCc1ccc2cc(CNCC3CCC3)[nH]c2c1)c1cc(=O)n2ccccc2n1 [STC-15]
- inhibitory activity against METTL3 (in words) (METTL3): nanomolar inhibitory activity

Compound: STM2457
- inhibitory activity against METTL3 (in words) (METTL3): nanomolar inhibitory activity
